# ChEMBL document CHEMBL1139581, “BCUT descriptors to predicting affinity toward A3 adenosine receptors” (Bioorg Med Chem Lett, 2005)
# Biological target: T1, Adenosine receptor A3 (Rattus norvegicus, UniProt P28647)
# T1 sequence (P28647 whole entry): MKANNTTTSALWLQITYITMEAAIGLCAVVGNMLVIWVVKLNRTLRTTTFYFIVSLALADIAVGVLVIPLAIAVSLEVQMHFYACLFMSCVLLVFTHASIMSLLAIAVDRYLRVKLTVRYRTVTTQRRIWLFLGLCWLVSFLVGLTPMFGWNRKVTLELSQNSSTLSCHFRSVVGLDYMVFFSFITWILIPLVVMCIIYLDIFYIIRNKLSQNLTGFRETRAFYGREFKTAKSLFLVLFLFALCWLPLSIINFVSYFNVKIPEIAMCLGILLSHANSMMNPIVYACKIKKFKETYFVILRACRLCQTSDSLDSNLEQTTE
# Experiment: Displacement of radioligand [125I]AB-MECA binding at rat A3 receptor expressed in CHO cells
# Type: cell-based
row,SMILES,Ki [nM]
1,CCNC(=O)[C@@H]1OC(n2cnc3c(NC(=O)Nc4ccc(S(=O)(=O)Nc5ncccn5)cc4)ncnc32)[C@@H](O)[C@H]1O (some centres not stated),405
2,CCNC(=O)[C@H]1OC(n2cnc3c(NC(=O)Nc4ccc(S(=O)(=O)Nc5ccccn5)cc4)ncnc32)[C@H](O)[C@@H]1O (some centres not stated),54.1
